The record followed here is patent publication US5281605A, “Novel xanthine derivatives” (Sandoz Ltd., priority 1986, dated 1994).

Each structure is given as a SMILES string. Where two headings read alike, the source gives them in different places.

Test [1] in a line: Level of activity of R- versus S-isomers in animal models. Type of test: in vivo. The note with it: R-isomers of examples 22 and 24 compared with S-isomers of examples 23 and 25 respectively.
The test system of test [2] is Isolated human bronchus. Briefly: Bronchospasmolytic activity in vitro: isolated human bronchus (A.1.2). The following applies: read-out: EC50, relaxation of human bronchus rings. The method, then: (§1) The trachea is excised from freshly sacrificed guineα-pigs and transected in the transverse plane to give rings of tissue of ca. 2 mm. Individual rings are mounted vertically on stainless steel supports, one of which is fixed at the base of an organ bath, the other being attached to a tension transducer. The rings are bathed in modified Tyrode solution at 37° C. and gassed with O2 /CO2 (95:5, v/v). Rings prepared in this manner, preloaded with 1 g, generate spontaneous tone and, after a period of equilibration, relax on addition of spasmolytic drugs. Tension can be enhanced by addition of carbachol (10^-6 M) or histamine (10^-4 M). To ascertain spasmolytic activity, test substances are dissolved in physiological saline and added in increasing quantities to the organ bath at 5 min. intervals to provide a cumulative concentration-effect curve.
1.2. Isolated human bronchus:
Rings of bronchus (ca. 2 mm depth) are dissected from samples of human lung, resected from patients with lung carcinoma but grossly free of disease. Activity is determined employing the methodology of example A.1.1.

Test [3] has as its system Isolated guineα-pig trachea. Briefly: Bronchospasmolytic activity in vitro: isolated guinea-pig trachea (A.1.1). The note with it: Cavia porcellus. The protocol:
1.1. Isolated guineα-pig trachea:
as §1

Test [4] concerns bombesin-induced bronchospasm. Briefly: Bronchodilator activity in vivo: inhibition of bombesin-induced bronchospasm (A.2.1). The note with it: Cavia porcellus, iv; anaesthetised guinea pigs; i.v. at the height of bombesin-induced bronchospasm; read-out: ED50, reversal of bombesin-induced bronchospasm. The method, then: 2.1. Inhibition of bronchospasm:
Guinea pigs are anaesthetised with pentobarbital (30 mg/kg i.p.) and phenobarbital (100 mg/kg i.p.) and ventilated via a tracheal cannula (10 ml/kg, 1 Hz). Ventilation is monitored either by a pressure transducer measuring air-flow (Konzett-Rossler method), or by a Fleisch flow transducer in line with the inspiratory circuit. When making measurements of flow, coincident pressure changes in the thorax are monitored directly via an intrathoracic trochar, permitting display of differential pressure relative to the trachea. From this information resistance and compliance are calculated at each inspiration.
Intravenous injection of bombesin (ca. […]) as a bolus, induces increased airways resistance Wilich is sustained over a period of several minutes. Capacity of test-substance to reverse response when administered i.v. at the height of bombesin-induced bronchospasm serves as a measure of efficacy in reversing established bronchospasm.

Turning to `COCCn1c(N[C@@H](COC)c2ccc(OC)c(OC)c2)nc2c1c(=O)n(C)c(=O)n2C` [Example 24], the “level of activity in animal models” value in test [1] is given as “higher level of activity”.

As to `COCCn1c(NC(CO)c2ccc(OC)c(OC)c2)nc2c1c(=O)n(C)c(=O)n2C` (stereo not shown) [Example 7], the EC50 in test [2] stood at 1200 nM.

Consider `COCCn1c(N[C@@H](CO)c2ccc(OC)c(OC)c2)nc2c1c(=O)n(C)c(=O)n2C` [Example 22], for which the EC50 in test [3] (basal tone, read-out: EC50, relaxation of tracheal rings, basal tone) is 860 nM; in test [3] (in the presence of carbachol (10^-6 M), read-out: EC50, relaxation of tracheal rings, carbachol) it was 19000 nM; in test [3] (in the presence of histamine (10^-4 M), read-out: EC50, relaxation of tracheal rings, histamine), 170 nM. The ED50 in test [4] was 0.03 to 0.09 mg/kg. Also, in test [1], the “level of activity in animal models” value is “higher level of activity”.
